Entries after “also recorded” stand apart in the source; their conditions may differ.
Experiments:
liver triglycerides = assay: Liver triglycerides, chronic exposure in ob/ob mice; type: in vivo; conditions: for Liver Trigs: CMC suspension
Description: Sections of liver were removed and frozen. Liver triglycerides were analyzed following lipid extraction by the Bligh Dyer method (Bligh and Dyer, Can. J. Med. Sci. 37(8):911-7 (1959), incorporated herein by reference). Total triglycerides were analyzed in the liver extracts by an enzymatic assay (Thermo Electron Corporation). Total lipid was normalized to initial liver weight and triglyceride content was normalized to liver weight mGPDH activity was analyzed in isolated mitochondria using 2-(4-iodophenyl)-3-(4-nitrophenyl)-5-phenyl tetrazolium chloride as the terminal electron acceptor (Gardner R S, Analytical Biochemistry 59:272 (1974)). Commercially available GPDH was used in each assay as a standard (Sigma, St. Louis, Mo.).
The purpose of these studies was to compare the difference in efficacy to clear liver triglyceride content between Compound cis-13-1 and T3 in ob/ob mice.
(§1) Methods: ob/ob mice were maintained on a standard diet. Compound cis-13-1 was administered at doses of 3, 10 and 30 mg/kg/d orally in a CMC suspension. T3, 100 nmole/kg/d, was administered as an aqueous solution subcutaneously. Liver triglycerides were analyzed as described in example A. Epididymal fat pads were removed and weighed. Clinical chemistry analysis was performed by LabCorp (San Diego, Calif.).

[1] = Epididymal fat pad weight in ob/ob mice; type: in vivo; conditions: for EFP weight: CMC suspension
Description: as §1

ALT = ALT levels (clinical chemistry) in ob/ob mice; type: in vivo; conditions: 9 weeks of treatment, from 634 IU/L in the vehicle treated group
Description: as §1

hepatic steatosis [2] = assay: Hepatic steatosis measured chemically and histologically in ob/ob mice; type: in vivo; conditions: oral administration of cis-13-1
Description: as §1

hepatic steatosis [3] = assay: Liver steatosis (H&E sections) in ZDF rats; type: in vivo, Zucker diabetic fatty (ZDF) rats; conditions: oral, CMC suspension
Description: (§2) Methods: ZDF rats were maintained on a standard diet (5008). Compounds cis-13-1 or 18 were administered orally at the indicated doses using a CMC suspension. Liver steatosis was analyzed visually following H&E staining of paraffin embedded liver sections. TSH was measured using a rodent specific kit (Amersham Biosciences). At the end of the experiment, the left ventricle was cannulated with a high fidelity catheter-tip transducer (Millar) via the right carotid artery. Left ventricle pressure, its first derivative (LV dP/dt), lead I ECG, and heart rate triggered off the ECG waveform, were recorded.

TSH [4] = assay: TSH in ZDF rats; type: in vivo, Zucker diabetic fatty (ZDF) rats; conditions: 4 weeks of treatment
Description: as §2

[5] = Heart rate and cardiovascular parameters in ZDF rats; type: in vivo, Zucker diabetic fatty (ZDF) rats; conditions: end of experiment
Description: as §2

hepatic steatosis [6] = assay: Liver steatosis (H&E sections) in DIO mice; type: in vivo, diet induced obesity (DIO) mice; conditions: DIO mice (60% Kcal from fat diet); 30 mg/kg/d orally, CMC suspension, 10 weeks
Description: The purpose of these studies was to compare the ability of Compound cis-13-1 to clear liver steatosis in diet induced obesity (DIO) mice. Methods: […] mice were maintained on a 60% Kcal from fat diet. Compound cis-13-1 was administered at doses of 30 mg/kg/d orally in a CMC suspension for 10 weeks. Liver steatosis was analyzed visually following H&E staining of paraffin embedded liver sections. TSH was measured using a rodent specific kit (Amersham Biosciences). Heart rates were measured using a Lead I ECG with the heart rate calculated from the ECG waveform.

mitochondria = assay: Ultrastructure of mitochondria in DIO mice; type: in vivo, diet induced obesity (DIO) mice; conditions: 30 mg/kg/d orally, 10 weeks
Description: (§3) Methods: C571316 mice were maintained on a 60% Kcal from fat diet. Compound cis-13-1 was administered at doses of 30 mg/kg/d orally in a CMC suspension for 10 weeks. Liver steatosis was analyzed visually following H&E staining of paraffin embedded liver sections. TSH was measured using a rodent specific kit (Amersham Biosciences). Heart rates were measured using a Lead I ECG with the heart rate calculated from the ECG waveform.

TSH [7] = assay: TSH in DIO mice; type: in vivo, diet induced obesity (DIO) mice; conditions: 10 weeks of treatment
Description: as §3

[8] = Heart rate (Lead I ECG) in DIO mice; type: in vivo, diet induced obesity (DIO) mice; conditions: 30 mg/kg/d orally, 10 weeks
Description: as §3

CPT-1 = assay: Liver gene expression (real-time PCR) in normal mice; type: in vivo; conditions: normal C57Bl6 mice; 30 mg/kg/d orally, CMC suspension, 1 week; liver mRNA
Description: The purpose of these studies was to compare the ability of Compound cis-13-1 to change liver gene expression.
Methods: C57Bl6 mice were maintained on a normal rodent diet. Compound cis-13-1 was administered at doses of 30 mg/kg/d orally in a CMC suspension for 1 week. Changes in levels of mRNA for liver and heart genes are analyzed using reverse transcriptase followed by real-time PCR analysis. The analysis is performed using an iCycler instrument (Biorad) and appropriate primers by means of standard methodology (e.g., Schwab D A et al. Life Sciences 66:1683-94(2000)). The amounts of mRNA are normalized to an internal control, typically, cyclophilin.

SMILES: Cc1cc(OC[P@@]2(=O)OCC[C@@H](c3cccc(Cl)c3)O2)cc(C)c1Cc1ccc(O)c(C(C)C)c1 [Compound cis-13-1]
- Liver Trigs (liver triglycerides; 3 mg/kg/d orally): 87 ± 6 mg/g
- Liver Trigs (liver triglycerides; 10 mg/kg/d orally): 66 ± 10 mg/g
- Liver Trigs (liver triglycerides; 30 mg/kg/d orally): 59 ± 6 mg/g
- Effect on liver (hepatic) triglyceride content, in words (liver triglycerides; cis-13-1 oral 3, 10, 30 mg/kg/d, T3 100 nmole/kg/d s.c.): decreased hepatic triglyceride content at 10 and 30 mg/kg/d
- EFP weight ([1]; 3 mg/kg/d orally): 4.4 ± 0.1 g
- EFP weight ([1]; 10 mg/kg/d orally): 4.7 ± 0.1 g
- EFP weight ([1]; 30 mg/kg/d orally): 4.4 ± 0.1 g
- Effect on epididymal fat pad (EFP) weight, in words ([1]; cis-13-1 oral, T3 100 nmole/kg/d s.c.): did not decrease epididymal fat pad (EFP) weight; also recorded: no effect on epididymal fat pad weight
- Decrease in ALT levels (ALT): > 50%
- Effect on hepatic steatosis measured chemically and histologically, in words (hepatic steatosis [2]): decreased hepatic steatosis
- Effect on hepatic steatosis (visual, H&E), in words (hepatic steatosis [3]): visually decreased hepatic steatosis compared to control
- Effect on TSH, in words (TSH [4]): No significant decreases in TSH
- Heart rates and other cardiovascular parameters, change from vehicle, in words [5]: no significant changes from vehicle in any parameter
- Effect on hepatic steatosis (visual, H&E), in words (hepatic steatosis [6]): decreased hepatic steatosis
- Ultrastructure of mitochondria, in words (mitochondria): no abnormalities in the ultrastructure of mitochondria
- Effect on TSH, in words (TSH [7]): No significant decreases in TSH
- Change in heart rate, in words [8]: no significant change in heart rate
- Increase in CPT-1 expression (CPT-1): 3.5 fold
